Laboratory results published in ChEMBL document CHEMBL1687815, “In vivo selection of a missense mutation in adeR and conversion of the novel blaOXA-164 gene into blaOXA-58 in carbapenem-resistant Acinetobacter baumannii isolates from a hospitalized patient” (2010).
Values after ≈ are worked out from the molar mass of the structure shown. Active and inactive are the calls of the source. No cut-off for these calls is given here.

Legend:
[1] = tested on: Acinetobacter baumannii; assay: Antimicrobial activity against Acinetobacter baumannii isolate J expressing beta-lactamase OXA-58 isolated from bedsore in presence of Sulbactam by vitek 2 system
[2] = tested on: Acinetobacter baumannii; assay: Antimicrobial activity against Acinetobacter baumannii isolate F expressing beta-lactamase OXA-164 isolated from tracheostoma of patient in presence of Sulbactam by vitek 2 system
[3] = tested on: Acinetobacter baumannii; assay: Antimicrobial activity against Acinetobacter baumannii isolate K expressing beta-lactamase OXA-58 isolated from blood culture of patient in presence of Sulbactam by vitek 2 system
[4] = tested on: Acinetobacter baumannii; assay: Antimicrobial activity against Acinetobacter baumannii isolate G expressing beta-lactamase OXA-58 isolated from tracheal secretion of patient in presence of Sulbactam by vitek 2 system
[5] = tested on: Acinetobacter baumannii; assay: Antimicrobial activity against Acinetobacter baumannii isolate H expressing beta-lactamase OXA-58 isolated from tracheal secretion of patient in presence of Sulbactam by vitek 2 system
[6] = tested on: Acinetobacter baumannii; assay: Antimicrobial activity against Acinetobacter baumannii isolate I expressing beta-lactamase OXA-58 isolated from tracheal secretion of patient in presence of Sulbactam by vitek 2 system
[7] = tested on: Acinetobacter baumannii; assay: Antimicrobial activity against Acinetobacter baumannii isolate L expressing beta-lactamase OXA-58 isolated from tracheal secretion of patient in presence of Sulbactam by vitek 2 system
[8] = tested on: Acinetobacter baumannii; assay: Antimicrobial activity against Acinetobacter baumannii isolate M expressing beta-lactamase OXA-58 isolated from tracheal secretion of patient in presence of Sulbactam by vitek 2 system
[9] = tested on: Acinetobacter baumannii; assay: Antimicrobial activity against Acinetobacter baumannii isolate A expressing beta-lactamase OXA-164 isolated from tracheal secretion of patient in presence of Sulbactam by vitek 2 system
[10] = tested on: Acinetobacter baumannii; assay: Antimicrobial activity against Acinetobacter baumannii isolate B expressing beta-lactamase OXA-164 isolated from tracheal secretion of patient in presence of Sulbactam by vitek 2 system
[11] = tested on: Acinetobacter baumannii; assay: Antimicrobial activity against Acinetobacter baumannii isolate C expressing beta-lactamase OXA-164 isolated from tracheal secretion of patient in presence of Sulbactam by vitek 2 system
[12] = tested on: Acinetobacter baumannii; assay: Antimicrobial activity against Acinetobacter baumannii isolate D expressing beta-lactamase OXA-164 isolated from tracheal secretion of patient in presence of Sulbactam by vitek 2 system
[13] = tested on: Acinetobacter baumannii; assay: Antimicrobial activity against Acinetobacter baumannii isolate E expressing beta-lactamase OXA-164 isolated from tracheal secretion of patient in presence of Sulbactam by vitek 2 system
[14] = tested on: Acinetobacter baumannii; assay: Antimicrobial activity against Acinetobacter baumannii isolate J expressing beta-lactamase OXA-58 isolated from bedsore by vitek 2 system
[15] = tested on: Acinetobacter baumannii; assay: Antimicrobial activity against Acinetobacter baumannii isolate F expressing beta-lactamase OXA-164 isolated from tracheostoma of patient by vitek 2 system
[16] = tested on: Acinetobacter baumannii; assay: Antimicrobial activity against Acinetobacter baumannii isolate K expressing beta-lactamase OXA-58 isolated from blood culture of patient by vitek 2 system
[17] = tested on: Acinetobacter baumannii; assay: Antimicrobial activity against Acinetobacter baumannii isolate G expressing beta-lactamase OXA-58 isolated from tracheal secretion of patient by vitek 2 system
[18] = tested on: Acinetobacter baumannii; assay: Antimicrobial activity against Acinetobacter baumannii isolate H expressing beta-lactamase OXA-58 isolated from tracheal secretion of patient by vitek 2 system
[19] = tested on: Acinetobacter baumannii; assay: Antimicrobial activity against Acinetobacter baumannii isolate I expressing beta-lactamase OXA-58 isolated from tracheal secretion of patient by vitek 2 system
[20] = tested on: Acinetobacter baumannii; assay: Antimicrobial activity against Acinetobacter baumannii isolate L expressing beta-lactamase OXA-58 isolated from tracheal secretion of patient by vitek 2 system
[21] = tested on: Acinetobacter baumannii; assay: Antimicrobial activity against Acinetobacter baumannii isolate M expressing beta-lactamase OXA-58 isolated from tracheal secretion of patient by vitek 2 system
[22] = tested on: Acinetobacter baumannii; assay: Antimicrobial activity against Acinetobacter baumannii isolate A expressing beta-lactamase OXA-164 isolated from tracheal secretion of patient by vitek 2 system
[23] = tested on: Acinetobacter baumannii; assay: Antimicrobial activity against Acinetobacter baumannii isolate B expressing beta-lactamase OXA-164 isolated from tracheal secretion of patient by vitek 2 system
[24] = tested on: Acinetobacter baumannii; assay: Antimicrobial activity against Acinetobacter baumannii isolate C expressing beta-lactamase OXA-164 isolated from tracheal secretion of patient by vitek 2 system
[25] = tested on: Acinetobacter baumannii; assay: Antimicrobial activity against Acinetobacter baumannii isolate D expressing beta-lactamase OXA-164 isolated from tracheal secretion of patient by vitek 2 system
[26] = tested on: Acinetobacter baumannii; assay: Antimicrobial activity against Acinetobacter baumannii isolate E expressing beta-lactamase OXA-164 isolated from tracheal secretion of patient by vitek 2 system
[27] = tested on: Acinetobacter baumannii; assay: Antimicrobial activity against Acinetobacter baumannii isolate J expressing beta-lactamase OXA-58 isolated from bedsore in presence of Tazobactam by vitek 2 system
[28] = tested on: Acinetobacter baumannii; assay: Antimicrobial activity against Acinetobacter baumannii isolate F expressing beta-lactamase OXA-164 isolated from tracheostoma of patient in presence of Tazobactam by vitek 2 system
[29] = tested on: Acinetobacter baumannii; assay: Antimicrobial activity against Acinetobacter baumannii isolate K expressing beta-lactamase OXA-58 isolated from blood culture of patient in presence of Tazobactam by vitek 2 system
[30] = tested on: Acinetobacter baumannii; assay: Antimicrobial activity against Acinetobacter baumannii isolate G expressing beta-lactamase OXA-58 isolated from tracheal secretion of patient in presence of Tazobactam by vitek 2 system
[31] = tested on: Acinetobacter baumannii; assay: Antimicrobial activity against Acinetobacter baumannii isolate H expressing beta-lactamase OXA-58 isolated from tracheal secretion of patient in presence of Tazobactam by vitek 2 system
[32] = tested on: Acinetobacter baumannii; assay: Antimicrobial activity against Acinetobacter baumannii isolate I expressing beta-lactamase OXA-58 isolated from tracheal secretion of patient in presence of Tazobactam by vitek 2 system
[33] = tested on: Acinetobacter baumannii; assay: Antimicrobial activity against Acinetobacter baumannii isolate L expressing beta-lactamase OXA-58 isolated from tracheal secretion of patient in presence of Tazobactam by vitek 2 system
[34] = tested on: Acinetobacter baumannii; assay: Antimicrobial activity against Acinetobacter baumannii isolate M expressing beta-lactamase OXA-58 isolated from tracheal secretion of patient in presence of Tazobactam by vitek 2 system
[35] = tested on: Acinetobacter baumannii; assay: Antimicrobial activity against Acinetobacter baumannii isolate A expressing beta-lactamase OXA-164 isolated from tracheal secretion of patient in presence of Tazobactam by vitek 2 system
[36] = tested on: Acinetobacter baumannii; assay: Antimicrobial activity against Acinetobacter baumannii isolate B expressing beta-lactamase OXA-164 isolated from tracheal secretion of patient in presence of Tazobactam by vitek 2 system
[37] = tested on: Acinetobacter baumannii; assay: Antimicrobial activity against Acinetobacter baumannii isolate C expressing beta-lactamase OXA-164 isolated from tracheal secretion of patient in presence of Tazobactam by vitek 2 system
[38] = tested on: Acinetobacter baumannii; assay: Antimicrobial activity against Acinetobacter baumannii isolate D expressing beta-lactamase OXA-164 isolated from tracheal secretion of patient in presence of Tazobactam by vitek 2 system
[39] = tested on: Acinetobacter baumannii; assay: Antimicrobial activity against Acinetobacter baumannii isolate E expressing beta-lactamase OXA-164 isolated from tracheal secretion of patient in presence of Tazobactam by vitek 2 system
[40] = tested on: Escherichia coli; assay: Antimicrobial activity against Escherichia coli NEB 5-alpha harboring plasmid WH1266 by Etest; type: functional
[41] = tested on: Escherichia coli; assay: Antimicrobial activity against Escherichia coli NEB 5-alpha harboring beta-lactamase OXA-164 by Etest; type: functional
[42] = tested on: Escherichia coli; assay: Antimicrobial activity against Escherichia coli NEB 5-alpha harboring beta-lactamase OXA-58 by Etest; type: functional
[43] = tested on: Acinetobacter baumannii; assay: Antimicrobial activity against Acinetobacter baumannii ATCC 19606 harboring plasmid WH1266 by Etest; type: functional; conditions: ATCC 19606 = CIP 70.34 = JCM 6841
[44] = tested on: Acinetobacter baumannii; assay: Antimicrobial activity against Acinetobacter baumannii ATCC 19606 harboring beta-lactamase OXA-164 by Etest; type: functional; conditions: ATCC 19606 = CIP 70.34 = JCM 6841
[45] = tested on: Acinetobacter baumannii; assay: Antimicrobial activity against Acinetobacter baumannii ATCC 19606 harboring beta-lactamase OXA-58 by Etest; type: functional; conditions: ATCC 19606 = CIP 70.34 = JCM 6841
[46] = tested on: Acinetobacter baumannii; assay: Antimicrobial activity against Acinetobacter baumannii ATCC 17978 harboring plasmid WH1266 by Etest; type: functional
[47] = tested on: Acinetobacter baumannii; assay: Antimicrobial activity against Acinetobacter baumannii ATCC 17978 harboring beta-lactamase OXA-164 by Etest; type: functional
[48] = tested on: Acinetobacter baumannii; assay: Antimicrobial activity against Acinetobacter baumannii ATCC 17978 harboring beta-lactamase OXA-58 by Etest; type: functional
[49] = tested on: Acinetobacter baumannii; assay: Antimicrobial activity against Acinetobacter baumannii isolate J expressing beta-lactamase OXA-58 isolated from bedsore by Etest
[50] = tested on: Acinetobacter baumannii; assay: Antimicrobial activity against Acinetobacter baumannii isolate F expressing beta-lactamase OXA-164 isolated from tracheostoma of patient by Etest
[51] = tested on: Acinetobacter baumannii; assay: Antimicrobial activity against Acinetobacter baumannii isolate K expressing beta-lactamase OXA-58 isolated from blood culture of patient by Etest
[52] = tested on: Acinetobacter baumannii; assay: Antimicrobial activity against Acinetobacter baumannii isolate G expressing beta-lactamase OXA-58 isolated from tracheal secretion of patient by Etest
[53] = tested on: Acinetobacter baumannii; assay: Antimicrobial activity against Acinetobacter baumannii isolate H expressing beta-lactamase OXA-58 isolated from tracheal secretion of patient by Etest
[54] = tested on: Acinetobacter baumannii; assay: Antimicrobial activity against Acinetobacter baumannii isolate I expressing beta-lactamase OXA-58 isolated from tracheal secretion of patient by Etest
[55] = tested on: Acinetobacter baumannii; assay: Antimicrobial activity against Acinetobacter baumannii isolate L expressing beta-lactamase OXA-58 isolated from tracheal secretion of patient by Etest
[56] = tested on: Acinetobacter baumannii; assay: Antimicrobial activity against Acinetobacter baumannii isolate M expressing beta-lactamase OXA-58 isolated from tracheal secretion of patient by Etest
[57] = tested on: Acinetobacter baumannii; assay: Antimicrobial activity against Acinetobacter baumannii isolate A expressing beta-lactamase OXA-164 isolated from tracheal secretion of patient by Etest
[58] = tested on: Acinetobacter baumannii; assay: Antimicrobial activity against Acinetobacter baumannii isolate B expressing beta-lactamase OXA-164 isolated from tracheal secretion of patient by Etest
[59] = tested on: Acinetobacter baumannii; assay: Antimicrobial activity against Acinetobacter baumannii isolate C expressing beta-lactamase OXA-164 isolated from tracheal secretion of patient by Etest
[60] = tested on: Acinetobacter baumannii; assay: Antimicrobial activity against Acinetobacter baumannii isolate D expressing beta-lactamase OXA-164 isolated from tracheal secretion of patient by Etest
[61] = tested on: Acinetobacter baumannii; assay: Antimicrobial activity against Acinetobacter baumannii isolate E expressing beta-lactamase OXA-164 isolated from tracheal secretion of patient by Etest

For `CC1(C)S[C@@H]2[C@H](NC(=O)[C@H](N)c3ccccc3)C(=O)N2[C@H]1C(=O)O`, the MIC [1] was “inactive”, the MIC [2] was “inactive” and the MIC [3] was “inactive”. For the same compound, the MIC [4] was “inactive”, the MIC [5] was “inactive” and the MIC [6] was “inactive”. The MIC [7] was “inactive”, the MIC [8] was “inactive” and the MIC [9] was “inactive”. For the same compound, the MIC [10] was “inactive”, the MIC [11] was “inactive” and the MIC [12] was “inactive”. For the same compound, the MIC [13] was “inactive”.

`CCN1CCN(C(=O)N[C@@H](C(=O)N[C@@H]2C(=O)N3[C@@H]2SC(C)(C)[C@@H]3C(=O)O)c2ccccc2)C(=O)C1=O` was tested, and the MIC [14] was “inactive”, the MIC [15] was “inactive” and the MIC [16] was “inactive”. For the same compound, the MIC [17] was “inactive”, the MIC [18] was “inactive” and the MIC [19] was “inactive”. The MIC [20] was “inactive”, the MIC [21] was “inactive” and the MIC [22] was “inactive”. The MIC [23] was “inactive”, the MIC [24] was “inactive” and the MIC [25] was “inactive”. The MIC [26] was “inactive”, the MIC [27] was “inactive” and the MIC [28] was “inactive”. For the same compound, the MIC [29] was “inactive”, the MIC [30] was “inactive” and the MIC [31] was “inactive”. For the same compound, the MIC [32] was “inactive”, the MIC [33] was “inactive” and the MIC [34] was “inactive”. For the same compound, the MIC [35] was “inactive”, the MIC [36] was “inactive” and the MIC [37] was “inactive”. The MIC [38] was “inactive” and the MIC [39] was “inactive”.

`C[C@@H](O)[C@H]1C(=O)N2C(C(=O)O)=C(S[C@@H]3CN[C@H](C(=O)N(C)C)C3)[C@H](C)[C@H]12` [MEROPENEM] gave an MIC [40] of 0.012 mg/L (≈ 0.0313 µM), an MIC [41] of 0.032 mg/L (≈ 0.0834 µM) and an MIC [42] of 0.032 mg/L (≈ 0.0834 µM). For the same compound, the MIC [43] was 0.19 mg/L (≈ 0.495 µM), the MIC [44] was 32 mg/L (≈ 83.4 µM) and the MIC [45] was > 32 mg/L. For the same compound, the MIC [46] was 0.25 mg/L (≈ 0.652 µM), the MIC [47] was > 32 mg/L and the MIC [48] was > 32 mg/L. For the same compound, the MIC [49] was ≥ 64 mg/L, the MIC [14] was 8 mg/L (≈ 20.9 µM) and the MIC [50] was 16 mg/L (≈ 41.7 µM). The MIC [51] was ≥ 64 mg/L, the MIC [52] was ≥ 64 mg/L and the MIC [53] was ≥ 64 mg/L. The MIC [54] was ≥ 64 mg/L, the MIC [55] was ≥ 64 mg/L and the MIC [56] was ≥ 64 mg/L. It also gave an MIC [57] of 32 mg/L (≈ 83.4 µM), an MIC [58] of 32 mg/L (≈ 83.4 µM) and an MIC [59] of 8 mg/L (≈ 20.9 µM). The MIC [60] was 32 mg/L (≈ 83.4 µM), the MIC [61] was 32 mg/L (≈ 83.4 µM) and the MIC [15] was 4 mg/L (≈ 10.4 µM). The MIC [16] was 8 mg/L (≈ 20.9 µM), the MIC [17] was ≥ 16 mg/L and the MIC [18] was 8 mg/L (≈ 20.9 µM). For the same compound, the MIC [19] was 8 mg/L (≈ 20.9 µM), the MIC [20] was ≥ 16 mg/L and the MIC [21] was 8 mg/L (≈ 20.9 µM). For the same compound, the MIC [22] was 2 mg/L (≈ 5.22 µM), the MIC [23] was 4 mg/L (≈ 10.4 µM) and the MIC [24] was 8 mg/L (≈ 20.9 µM). For the same compound, the MIC [25] was 8 mg/L (≈ 20.9 µM) and the MIC [26] was 8 mg/L (≈ 20.9 µM).
